According to patent publication US8592590B2, “Tetrahydrotriazolopyridine compounds as selective MGLU5 receptor potentiators useful for the treatment of schizophrenia” (Eli Lilly and Company, priority 2009, dated 2013):

Experiments:
[1] = target: T1, human mGlu5 receptor (Homo sapiens, UniProt P41594); assay: Functional in vitro activity at human mGlu5 receptor (FLIPR calcium, potentiator mode); format: cell-based; details: AV-12 cells expressing human mGlu5, glutamate EC10, relative EC50
T1 construct: expressed in transfected cells
T1 sequence (P41594 21-1212): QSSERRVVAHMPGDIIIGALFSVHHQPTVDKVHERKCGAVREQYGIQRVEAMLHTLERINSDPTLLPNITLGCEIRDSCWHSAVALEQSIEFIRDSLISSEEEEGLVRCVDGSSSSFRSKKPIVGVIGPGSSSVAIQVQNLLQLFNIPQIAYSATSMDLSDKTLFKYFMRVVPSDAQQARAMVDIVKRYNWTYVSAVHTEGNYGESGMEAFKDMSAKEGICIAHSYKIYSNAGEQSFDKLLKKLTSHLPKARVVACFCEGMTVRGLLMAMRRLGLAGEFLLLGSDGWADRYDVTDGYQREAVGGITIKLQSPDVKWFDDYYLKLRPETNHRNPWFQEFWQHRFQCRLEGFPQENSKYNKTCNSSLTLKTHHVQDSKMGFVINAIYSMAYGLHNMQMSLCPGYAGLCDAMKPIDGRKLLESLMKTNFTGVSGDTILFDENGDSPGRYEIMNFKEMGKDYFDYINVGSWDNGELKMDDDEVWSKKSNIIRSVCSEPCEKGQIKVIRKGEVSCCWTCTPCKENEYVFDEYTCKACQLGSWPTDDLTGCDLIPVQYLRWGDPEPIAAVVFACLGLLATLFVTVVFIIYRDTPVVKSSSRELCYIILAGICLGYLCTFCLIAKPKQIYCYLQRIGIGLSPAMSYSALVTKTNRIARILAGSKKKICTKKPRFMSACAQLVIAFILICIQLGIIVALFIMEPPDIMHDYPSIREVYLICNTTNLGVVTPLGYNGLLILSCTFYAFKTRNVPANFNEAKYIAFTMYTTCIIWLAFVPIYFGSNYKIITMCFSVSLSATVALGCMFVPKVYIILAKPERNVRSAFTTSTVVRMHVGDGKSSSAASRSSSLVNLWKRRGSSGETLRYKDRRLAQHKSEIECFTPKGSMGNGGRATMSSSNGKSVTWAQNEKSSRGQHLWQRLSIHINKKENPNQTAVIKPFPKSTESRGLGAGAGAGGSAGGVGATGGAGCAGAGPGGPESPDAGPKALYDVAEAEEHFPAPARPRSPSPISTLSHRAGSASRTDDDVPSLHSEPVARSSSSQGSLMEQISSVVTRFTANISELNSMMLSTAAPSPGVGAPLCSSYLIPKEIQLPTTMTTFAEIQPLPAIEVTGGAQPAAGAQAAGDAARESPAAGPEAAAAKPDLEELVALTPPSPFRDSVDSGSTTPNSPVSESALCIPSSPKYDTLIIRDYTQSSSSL
Description: An AV-12 cell line stably expressing the human mGlu5 receptor and co-transfected with the rat glutamate transporter EAAT 1 (Excitatory Amino Acid Transporter 1) are used for these studies (see for example Desai, Burnett, Mayne, Schoepp, Mol. Pharmacol. 48, 648-657, 1995). The cell line is maintained by culturing in Dulbecco's Modified Eagle's Medium (DMEM) with high glucose and pyridoxine hydrochloride supplemented with 5% heat inactivated, dialyzed fetal bovine serum, 1 mM sodium pyruvate, 10 mM HEPES (4-(2-hydroxyethyl)-1-piperazineethanesulfonic acid), 1 mM of L-glutamine, 0.75 mg/ml geneticin and 0.3 mg/ml hygromycin. Sub-confluent cultures are passaged twice per week using 0.25% trypsin-EDTA. […]
Intracellular calcium levels are monitored before and after the addition of compounds using a Fluorometric Imaging Plate Reader (FLIPR, Molecular Devices, Union City, Calif. USA). […] The results are analyzed using (GraphPad® Prism v4, Graphpad Software, LaJolla, Calif., USA) to calculate the concentrations of glutamate needed to induce the EC10 responses.
Compounds are tested in a two-addition FLIPR assay using a 10-point concentration response profile starting at a final concentration of 25 μM (agonist mode) or 12.5 μM (potentiator mode). […] After taking an initial 5-sec fluorescent read on the FLIPR instrument, compound is added to the cell plate (50 ul per well). […]

[2] = tested on: Male Lister hooded rats; assay: Delayed matching to position task (DMTP) in rats, deficit induced by NMDA antagonist SDZ 220,581; format: in vivo, rat
From the text: The delayed matching to position task (DMTP) has been used to study working memory in rats. Working memory in this context is the retention and use of information that is available only during an individual trial. The study of compounds which modulate NMDA receptors in DMTP has been used to identify the importance of NMDA receptors in learning and memory. More specifically, studies have shown competitive NMDA antagonists to induce impairment of DMTP in rats. Compounds which show a positive effect in attenuating deficits induced by competitive NMDA antagonists in rats are believed to be useful in treating cognitive disorders in humans.
Male Lister hooded rats are housed in groups of 4 and are maintained on a food-restricted diet and a 12-hour light dark cycle. The experiments are conducted during the same part of the light phase each day.
Standard operant chambers, housed in sound and light attenuating chambers are used. Each chamber comprised a house light, two retractable levers, each with a stimulus light above it. The levers are located either side of a recessed magazine where food pellets are delivered from an automatic pellet dispenser. Start of a session is signaled by onset of the house light, and its permanent offset indicated the end of a session. Experimental sessions are controlled and data is recorded and analyzed.
Sample Phase. A trial begins with a one of the levers extending into the chamber. The stimulus light above the lever is illuminated. If the lever is pressed, it is retracted and the stimulus light extinguished. This initiates the pseudo-randomly selected delay period of 1, 2, 4, 8 or 16 seconds during training or 1, 12, or 32 seconds during test.
Head Entry. After this delay period is complete, animals are required to make a head entry into the food hopper within 10 seconds, if an appropriate response is made both levers are extended into the chamber. If no response is made during this period, the house-light is extinguished and the trial counted as an omission.
Choice Phase. If animals make the appropriate head entry response and the levers extended into the operant chamber, they have 10 seconds which to make their response. A correct response consists of an animal pressing the same lever that is extended into the chamber during the sample phase. This response results in both levers retracting and a single food pellet being delivered into the food hopper. After a 5 second inter-trial interval the next trial begins. Following an incorrect response, (the animal pressing the opposite lever as had been extended during the sample phase), both levers retract and the house-light is extinguished signaling the end of that trial. After a 5 second time out the next trial begins, signaled by onset of the house-light. If the animal fails to respond within 10 second during the choice phase, the levers retract, the house-light extinguishes and the trial is recorded as an omission.
Overall Session. Each session is terminated after 75 trials (15 pseudo-random presentations of each delay period). Animals are trained to a criterion of greater than 70% accuracy over the entire session with less than 10% omissions of responding. After criterion is reached, rats are trained two times a week in a baseline condition and once a week in a test condition.
Test Compounds. A compound of the present invention stock of 1.0 mg/ml is prepared. For example, 18.7 mg of the compound of Example 11 is weighed and suspended in 18.7 ml vehicle (1% high viscocity cmc, 0.25% tween, 0.05% antifoam). A white suspension is formed. Test compound is administered orally, 60 minutes prior to the start of a session, in a volume of 1 ml/kg.
NMDA antagonist stock, 2.0 mg/ml: […] of SDZ 220,581 is weighed and dissolved in 16.73 ml vehicle (0.09 ml 1M NaOH, made up to volume with 5% glucose). A solution is formed and at a pH 6.5 at time of injection. SDZ 220,581 is administered subcutaneously, 30 minutes prior to the start of a session, in a volume of 1 ml/kg. […]

[3] = Example 11/V: Example 11 1 mg/kg orally 60 min prior, vehicle instead of SDZ

EC50 [1] | Compound | Trials Completed ([2]; Example 11/SDZ: Example 11 1 mg/kg orally 60 min prior plus SDZ 220,581 subcutaneously 30 min prior) | % Accuracy [2, 3] | % Omissions [2, 3] | Average Correct latency [2, 3] | Average Incorrect latency [2, 3] | Head Entries [2, 3] | Sample latency [2, 3] | Trials Completed [2, 3] | deficits induced by SDZ-220,581 in the delayed matching to position assay of working memory ([2]; concurrent treatment with 1 mg/kg Example 11)
120 ± 47 nM | CC(C)(C)c1nnc2n1CCC(c1nc(-c3ccc(F)cc3)no1)C2 (racemic) [Example 1, 3-tert-butyl-7-[3-(4-fluorophenyl)-1,2,4-oxadiazol-5-yl]-5,6,7,8-tetrahydro[1,2,4]triazolo[4,3-a]pyridine] |  |  |  |  |  |  |  |  | 
36 ± 3.5 nM | CC(C)(C)c1nnc2n1CC[C@H](c1nc(-c3ccc(F)cc3)no1)C2 (single isomer, unassigned) [Example 11] | 72 ± 2 | 75.6 ± 1.6% | 1.2 ± 0.4% | 0.94 ± 0.05 s | 0.98 ± 0.08 s | 2092 ± 83 | 1.84 ± 0.22 s | 75 ± 0 | attenuated all deficits
